Experiments:
[1] = Stability in rat hepatocytes
Experimental: Rat hepatocyte compound stability assays were performed using cryopreserved vials of rat cryopreserved hepatocytes (Life Technologies), which were thawed according to manufacturer’s instructions and resuspended in Williams Medium E (WME) containing cell maintenance supplement pack (CM4000, Life
Technologies). Hepatocytes were incubated in suspension (0.5 million cells/mL) in 48 well non-collagen coated cell culture plates for 10 minutes at 37 °C, 5%
CO2. Upon addition of an equal volume of supplemented WME containing 1 mM test compound, an aliquot of incubation solution was removed to acetonitrile containing internal standard (final concentration 0.5 mM test compound and a cell density of 0.25 million cells/mL). Similarly, aliquots were removed at 3,6,9,15,30,45,60,90 and
100 mL of 80:20 water:acetonitrile was added to all samples and the analysis plate was centrifuged for 10 minutes at room temperature prior to injection and analysis of samples by UPLC-MS/MS using a Xevo TQs micro (Waters corporation, USA). XLfit (IDBS, UK) was used to calculate the exponential decay and consequently the rate constant (k) from the ratio of peak area of test compound to internal standard at each timepoint. The rate of intrinsic clearance (CLi) was then
1.10 Rat hepatocyte stability […]
internal standard at each timepoint. The calculated hepatocyte intrinsic clearance […]

[2] = target: T1, PfKMO (Pseudomonas fluorescens, UniProt Q84HF5, C252S/C461S); assay: Stopped-flow reduction of flavin cofactor by NADPH; type: biochemical; conditions: for Reduction rate of flavin cofactor: PfKMO with saturating ligand, 2 mM NADPH, 25 °C, anaerobic
T1 construct: made in house; host or cells: E. coli BL21 (DE3)
Experimental: The reduction rate of the flavin cofactor by NADPH was measured using a stopped-flow spectrophotometer (Applied Photophysics Ltd), which was housed in an anaerobic glovebox (Belle Technology). […] The reduction of the flavin was monitored by the decrease in the absorbance of the flavin at 450 nm and transients were fitted to either double or triple exponentials.
Supplementary Figure 13. Reduction of flavin cofactor by NADPH in the presence and absence of ligands. Anaerobic mixtures of 10 µM PfKMO with or without ligand were mixed against anaerobic 2 mM NADPH on a stopped-flow spectrophotometer at 25℃. a, 10 µM PfKMO mixed with 2 mM NADPH; b, 10 µM

[3] = Brain tissue binding (equilibrium dialysis); type: in vitro ADME; conditions: mouse, brain homogenate
Experimental: tissues were diluted (brain: 1:10, w/v; liver: 1:10,000, w/v) with Krebs buffer containing 100 mM Tris-HCl (pH 8.1), 10 mM KCl and 1 mM EDTA, and sonicated.
80 µl of the resulting tissue homogenates were incubated for 40 min at 37 °C with 20 µl aliquots of aqueous solutions of the test compounds (or water in controls), 10 µM kynurenine, 1 mM NADPH, 3 mM glucose-6-phosphate and 1U/ml glucose-6-phosphate dehydrogenase in a total volume of 200 µl. The reaction was terminated by the addition of 50 µl of 6% perchloric acid, the denatured proteins were removed by centrifugation, and newly synthesized 3-HK was quantified by HPLC with electrochemical detection (Coulochem 5100A; ESA, Chelmsford, MA) at an oxidation potential of […].
The methodology employed was a modification of that reported previously20. […]
for 1 minute and then centrifuged at 3000 rpm in 96-well blocks for 15 minutes (Allegra X12-R, Beckman Coulter, USA). All samples were analysed by means of UPLC/MS/MS on a Xevo TQs micro Mass Spectrometer (Waters Corporation, USA).
The unbound fraction was determined as the ratio of the peak area in artificial CSF to that in brain, with correction for dilution factor according to equation (5)21, […]
((1/f ! ,!""!#$%& ) − 1) + 1/D where D = dilution factor in brain homogenate and fu,apparent is the measured free fraction of diluted brain homogenate. […]

T1 sequence (Q84HF5 whole entry C252S/C461S): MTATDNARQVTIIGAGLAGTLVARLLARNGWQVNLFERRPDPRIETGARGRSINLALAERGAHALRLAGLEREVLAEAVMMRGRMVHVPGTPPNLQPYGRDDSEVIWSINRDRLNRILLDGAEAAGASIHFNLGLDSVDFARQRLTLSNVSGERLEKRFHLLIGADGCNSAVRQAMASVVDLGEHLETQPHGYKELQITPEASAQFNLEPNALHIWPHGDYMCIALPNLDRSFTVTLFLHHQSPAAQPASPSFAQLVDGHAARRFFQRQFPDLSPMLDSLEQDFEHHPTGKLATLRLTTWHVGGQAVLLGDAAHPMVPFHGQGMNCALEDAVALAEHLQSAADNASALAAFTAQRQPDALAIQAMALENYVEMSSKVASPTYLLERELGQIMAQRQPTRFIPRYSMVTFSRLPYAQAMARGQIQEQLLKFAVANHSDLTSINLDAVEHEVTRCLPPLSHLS

| Compound | Mean intrinsic clearance [1] [mL/min/g liver] | Reduction rate of flavin cofactor [2] [s⁻¹] | Stimulation of KMO reduction by NADPH ([2]; rapid mixing stopped-flow assays) | fraction unbound at 5 h, 10 µg/g [3] |
| --- | --- | --- | --- | --- |
| Cc1cc2c(c(C)c1Cl)N(CC(=O)O)C(=O)CO2 [compound 1, (6-chloro-5,7-dimethyl-3-oxo-2,3-dihydro-4H-1,4-benzoxazin-4-yl) acetic acid] | 0.8 | 0.13 ± 0.005 | do not stimulate | 0.3 |
| CCOC(=O)CN1C(=O)COc2cc(C)c(Cl)c(C)c21 [1b] | > 50 | – | – | 0.016 |
| Cc1cc2c(c(C)c1Cl)N(Cc1nn[nH]n1)C(=O)CO2 [1h, 6-chloro-5,7-dimethyl-4-(2H-tetrazol-5-ylmethyl)-1,4-benzoxazin-3-one] | – | 0.09 ± 0.001 | – | – |

— publication PMC6656724 (Communications Biology, 2019)
